US12144874B2, “Synthesis and composition of photodynamic therapeutic agents for the targeted treatment of cancer” (On Target Laboratories, LLC, priority 2015, dated 2024)
“Also recorded” adds a separate entry of the source. Read-outs that look alike come from different tables or passages of the source.

Assays:
KB cells = details: for IC50: Table 3, nucleus-targeted modified PDT agents
subcutaneous KB tumor = experiment: In vivo PDT efficacy on growth of subcutaneous KB tumor xenograft in nude mice; details: 50 nmol dose, laser 75 mW/cm^2, 137 J/cm^2, 38 min, 3 h after injection
Protocol: The growth of the tumor was monitored (images were taken) and tumor volume was measured using caliper.
In the following examples, the in vivo efficacy of the compounds is determined using KB tumor cell xenograft in nude mice. In these studies, KB cells were implanted subcutaneously and growth of the tumors was monitored. […] Moreover, once tumors grow to […], the compounds were injected via tail vein. […] In vivo efficacy of BPheid-a was evaluated by monitoring reduction of tumor volume.
KB cells that overexpressed folate receptor were implanted subcutaneously into female nude mice and allowed to grow to ˜50 mm^3 prior to initiation of treatment with 50 nmol of BPheid-a (1). […] In vivo efficacy of BPheid-a was evaluated by monitoring reduction of tumor volume.

[1] = Table 2, mitochondrial-targeted modified PDT agents, free drugs in DMSO, 2 h incubation, laser 32 min, then 24 h
[2] = Table 8, folate-targeted releasable visudyne conjugates
[3] = free drugs in DMSO, 2 h incubation, laser 32 min, then 24 h

CC[C@H]1c2cc3[nH]c(c(CC(=O)OC)c4nc(cc5[nH]c(cc(n2)[C@@H]1C)c(C(C)=O)c5C)[C@@H](C)[C@@H]4CCC(=O)NNC(=O)OCCSSC[C@H](NC(=O)CCOCCOCCOCCOCCOCCOCCOCCOCCNC(=O)CC[C@H](NC(=O)c1ccc(NCc2cnc4nc(N)[nH]c(=O)c4n2)cc1)C(=O)O)C(=O)O)c(C(=O)NCCOCCOCCO)c3C [Compound 88a]
Activity class on KB cancer cells in culture (active / highly active) (KB cells): active
EC50 (KB cells; 2 h): 34.5 nM

CC[C@H]1c2cc3[nH]c4c(c3C)C(=O)C(C(=O)OC)c4c3nc(cc4[nH]c(cc(n2)[C@@H]1C)c(C(C)=O)c4C)[C@@H](C)[C@@H]3CCC(=O)N[C@@H](CCC(=O)NC1C(O)OC(CO)C(O)C1O)C(=O)O (some centres unmarked) [Compound 19]
EC50 (KB cells; [1]): 550 nM

CC[C@H]1c2cc3[nH]c(c(CC(=O)OC)c4nc(cc5[nH]c(cc(n2)[C@@H]1C)c(C(C)=O)c5C)[C@@H](C)[C@@H]4CCC(=O)NNC(=O)OCCSSC[C@H](NC(=O)CCOCCOCCOCCOCCOCCOCCNC(=O)CC[C@H](NC(=O)c1ccc(NCc2cnc4nc(N)[nH]c(=O)c4n2)cc1)C(=O)O)C(=O)O)c(C(=O)N[N+](C)(C)C)c3C [Compound 87b]
EC50 (KB cells; 2 h): 6040 nM

C=CC1=C(C)c2cc3[nH]c(cc4nc(cc5[nH]c(cc1n2)c(C)c5CCC(=O)OC)C(CCC(=O)NNC(=O)OCCSSCC(NC(=O)c1ccc(NCc2cnc5nc(N)[nH]c(=O)c5n2)cc1)C(=O)O)=C4C)[C@@]1(C)C3=CC=C(C(=O)OC)[C@H]1C(=O)OC (some centres unmarked) [Compound 81]
Activity on KB cancer cells in culture, in words (KB cells): not active
EC50 (KB cells; [2]): Not active*

CC[C@H]1c2cc3[nH]c4c(c3C)C(=O)C(C(=O)OC)c4c3nc(cc4[nH]c(cc(n2)[C@@H]1C)c(C(C)=O)c4C)[C@@H](C)[C@@H]3CCC(=O)NCCC[C@@H](C(=O)OC(C)(C)C)[N+](C)(C)C (some centres unmarked) [Compound 11b]
EC50 (KB cells; [1]): 23.1 nM

CC[C@H]1c2cc3[nH]c4c(c3C)C(=O)C(C(=O)OC)c4c3nc(cc4[nH]c(cc(n2)[C@@H]1C)c(C(C)=O)c4C)[C@@H](C)[C@@H]3CCC(=O)NCCCC(C(=O)NCCSSC[C@H](NC(=O)[C@H](CC(=O)NCCS(=O)(=O)O)NC(=O)CC[C@H](NC(=O)c1ccc(NCc2cnc3nc(N)[nH]c(=O)c3n2)cc1)C(=O)O)C(=O)O)[N+](C)(C)C (some centres unmarked) [Compound 100]
Effect on growth of subcutaneous KB tumor, in words (subcutaneous KB tumor): completely cure the tumor and showed tumor regression for 2 weeks; also recorded: completely cured with no recurrence during the monitored time (2 weeks)
EC50 (KB cells; 2 h): 12.8 nM

CC[C@H]1c2cc3[nH]c4c(c3C)C(=O)C(C(=O)OC)c4c3nc(cc4[nH]c(cc(n2)[C@@H]1C)c(C(C)=O)c4C)[C@@H](C)[C@@H]3CCC(=O)NCCSSC[C@H](NC(=O)[C@H](CC(=O)NCCS(=O)(=O)O)NC(=O)CC[C@H](NC(=O)c1ccc(NCc2cnc3nc(N)[nH]c(=O)c3n2)cc1)C(=O)O)C(=O)O (some centres unmarked) [Compound 64]
Effect on growth of subcutaneous KB tumor, in words (subcutaneous KB tumor): completely cure the tumor and showed tumor regression for 2 weeks

CC[C@H]1C2=Cc3c(C)c(C(=O)NNC(=O)Nc4cccc(S(=O)(=O)O)c4)c4[n]3[Pd][n]3c(c(C)c(C(C)=O)c3=CC(=N2)[C@@H]1C)=CC1=NC(=C4CC(=O)OC)[C@@H](CCC(=O)O)[C@@H]1C [Compound 39]
IC50 (KB cells; [3]): Not active*

CC[C@H]1c2cc3[nH]c4c(c3C)C(=O)C(C(=O)OC)c4c3nc(cc4[nH]c(cc(n2)[C@@H]1C)c(C(C)=O)c4C)[C@@H](C)[C@@H]3CCC(=O)N[C@@H](CCC(=O)NCCS(=O)(=O)O)C(=O)NCCNC(=O)OCCSSC[C@H](NC(=O)[C@H](CC(=O)NCCS(=O)(=O)O)NC(=O)CC[C@H](NC(=O)c1ccc(NCc2cnc3nc(N)[nH]c(=O)c3n2)cc1)C(=O)O)C(=O)O (some centres unmarked) [Compound 119]
EC50 (KB cells; 2 h): 538 nM

CC[C@H]1c2cc3[nH]c4c(c3C)C(=O)C(C(=O)OC)c4c3nc(cc4[nH]c(cc(n2)[C@@H]1C)c(C(C)=O)c4C)[C@@H](C)[C@@H]3CCC(=O)NNC(=O)OCCSSC[C@H](NC(=O)CCOCCOCCOCCOCCOCCOCCNC(=O)CC[C@H](NC(=O)c1ccc(NCc2cnc3nc(N)[nH]c(=O)c3n2)cc1)C(=O)O)C(=O)O (single isomer, unassigned) [Compound 76b]
Effect on growth of subcutaneous KB tumor, in words (subcutaneous KB tumor): less active in mice as compared to 76a and 76c; also recorded: completely cured with no recurrence during the monitored time (3 weeks)
EC50 (KB cells; 2 h): 320 nM

CC[C@H]1c2cc3[nH]c4c(c3C)C(=O)C(C(=O)OC)c4c3nc(cc4[nH]c(cc(n2)[C@@H]1C)c(C(C)=O)c4C)[C@@H](C)[C@@H]3CCC(=O)NCCCC(NC(=O)c1ccc(N(C)Cc2cnc3nc(N)nc(N)c3n2)cc1)C(=O)NNC(=O)OCCSSC[C@H](NC(=O)[C@H](CC(=O)NCCS(=O)(=O)O)NC(=O)CC[C@H](NC(=O)c1ccc(NCc2cnc3nc(N)[nH]c(=O)c3n2)cc1)C(=O)O)C(=O)O (some centres unmarked) [Compound 117]
EC50 (KB cells; 2 h): 2850 nM

CC[C@H]1c2cc3[nH]c4c(c3C)C(=O)C(C(=O)OC)c4c3nc(cc4[nH]c(cc(n2)[C@@H]1C)c(C(C)=O)c4C)[C@@H](C)[C@@H]3CCC(=O)NCCSSC[C@H](NC(=O)[C@H](CC(=O)NCCS(=O)(=O)O)NC(=O)[C@H](CC(=O)NCCS(=O)(=O)O)NC(=O)CC[C@H](NC(=O)c1ccc(NCc2cnc3nc(N)[nH]c(=O)c3n2)cc1)C(=O)O)C(=O)O (some centres unmarked) [Compound 105]
EC50 (KB cells; 2 h): 45.3 nM

C=CC1=C(C)c2cc3[nH]c(cc4nc(cc5[nH]c(cc1n2)c(C)c5CCC(=O)NNC(=O)OCCSSC[C@H](NC(=O)[C@H](CCCNC(=N)N)NC(=O)C[C@@H](NC(=O)[C@H](CCCNC(=N)N)NC(=O)CC[C@H](NC(=O)c1ccc(NCc2cnc5nc(N)[nH]c(=O)c5n2)cc1)C(=O)O)C(=O)O)C(=O)O)C(CCC(=O)OC)=C4C)[C@]1(C)C3=CC=C(C(=O)OC)[C@@H]1C(=O)OC [Compound 85]
Activity on KB cancer cells in culture, in words (KB cells): not active
EC50 (KB cells; [2]): Not active*

CC[C@@H]1c2cc3[nH]c4c(c3C)C(=O)C(C(=O)OC)c4c3nc(cc4[nH]c(cc(n2)[C@H]1C)c(C(C)=O)c4C)[C@H](C)[C@H]3CCC(=O)NCCC[C@@H](C(=O)NNC(=O)OCCSSC[C@H](NC(=O)[C@H](CC(=O)NCCS(=O)(=O)O)NC(=O)CC[C@H](NC(=O)c1ccc(NCc2cnc3nc(N)[nH]c(=O)c3n2)cc1)C(=O)O)C(=O)O)[N+](C)(C)C (some centres unmarked) [Compound 89a]
Effect on growth of subcutaneous KB tumor, in words (subcutaneous KB tumor): completely reduced the tumor
EC50 (KB cells; 2 h): 3.7 nM

CC[C@H]1c2cc3[nH]c4c(c3C)C(=O)C(C(=O)OC)c4c3nc(cc4[nH]c(cc(n2)[C@@H]1C)c(C(C)=O)c4C)[C@@H](C)[C@@H]3CCC(=O)N[C@@H](CC(=O)N[N+](C)(C)C)C(=O)NNC(=O)OCCSSC[C@H](NC(=O)C[C@H](NC(=O)CC[C@H](NC(=O)c1ccc(NCc2cnc3nc(N)[nH]c(=O)c3n2)cc1)C(=O)O)C(=O)NCCS(=O)(=O)O)C(=O)O (some centres unmarked) [Compound 95a]
EC50 (KB cells; 2 h): 166 nM

CC[C@H]1c2cc3[nH]c4c(c3C)C(=O)C(C(=O)OC)c4c3nc(cc4[nH]c(cc(n2)[C@@H]1C)c(C(C)=O)c4C)[C@@H](C)[C@@H]3CCC(=O)NNC(=O)OCCSSC[C@H](NC(=O)CCOCCOCCOCCOCCOCCOCCOCCOCCNC(=O)CC[C@H](NC(=O)c1ccc(NCc2cnc3nc(N)[nH]c(=O)c3n2)cc1)C(=O)O)C(=O)O (single isomer, unassigned) [Compound 76d]
EC50 (KB cells; 2 h): 339 nM

CC[C@H]1c2cc3[nH]c4c(c3C)C(=O)C(C(=O)OC)c4c3nc(cc4[nH]c(cc(n2)[C@@H]1C)c(C(C)=O)c4C)[C@@H](C)[C@@H]3CCC(=O)NCCNC(=O)OCCSSC[C@H](NC(=O)[C@H](CC(=O)NCCS(=O)(=O)O)NC(=O)CC[C@H](NC(=O)c1ccc(NCc2cnc3nc(N)[nH]c(=O)c3n2)cc1)C(=O)O)C(=O)O (some centres unmarked) [Compound 65c]
EC50 (KB cells; 2 h): 11.6 nM

CC[C@H]1c2cc3[nH]c(c(CC(=O)OC)c4nc(cc5[nH]c(cc(n2)[C@@H]1C)c(C(C)=O)c5C)[C@@H](C)[C@@H]4CCC(=O)NCCSSC[C@H](NC(=O)[C@H](CC(=O)NCCS(=O)(=O)O)NC(=O)CC[C@H](NC(=O)c1ccc(NCc2cnc4nc(N)[nH]c(=O)c4n2)cc1)C(=O)O)C(=O)O)c(C(=O)N[N+](C)(C)C)c3C [Compound 101]
EC50 (KB cells; 2 h): 159 nM

CC[C@H]1c2cc3[nH]c4c(c3C)C(=O)C(C(=O)OC)c4c3nc(cc4[nH]c(cc(n2)[C@@H]1C)c(C(C)=O)c4C)[C@@H](C)[C@@H]3CCC(=O)N[C@@H](CC(=O)NCCS(=O)(=O)O)C(=O)O (some centres unmarked) [Compound 40]
IC50 (KB cells; [3]): 4080 nM

CC[C@H]1c2cc3[nH]c4c(c3C)C(=O)C(C(=O)OC)c4c3nc(cc4[nH]c(cc(n2)[C@@H]1C)c(C(C)=O)c4C)[C@@H](C)[C@@H]3CCC(=O)NCCC[C@@H](C(=O)O)[N+](C)(C)C (some centres unmarked) [Compound 12b]
EC50 (KB cells; [1]): 15.4 nM

CC[C@H]1c2cc3[nH]c4c(c3C)C(=O)C(C(=O)OC)c4c3nc(cc4[nH]c(cc(n2)[C@@H]1C)c(C(C)=O)c4C)[C@@H](C)[C@@H]3CCC(=O)NCCC[C@H](NC(=O)CC[P+](c1ccccc1)(c1ccccc1)c1ccccc1)C(=O)NCCSSC[C@H](NC(=O)[C@H](CC(=O)NCCS(=O)(=O)O)NC(=O)CC[C@H](NC(=O)c1ccc(NCc2cnc3nc(N)[nH]c(=O)c3n2)cc1)C(=O)O)C(=O)O (some centres unmarked) [Compound 99]
EC50 (KB cells; 2 h): 5.3 nM

Oc1cccc(-c2c3nc(c(-c4cccc(O)c4)c4ccc([nH]4)c(-c4cccc(O)c4)c4nc(c(-c5cccc(O)c5)c5ccc2[nH]5)CC4)C=C3)c1 [Compound 6, Foscan, reference compound]
EC50 (KB cells; Table 1, non-targeted PDT agents, free drugs in DMSO, 2 h incubation, laser 6 mW/cm^2, 12 J/cm^2, 32 min, then 24 h): Not active

CC[C@H]1c2cc3[nH]c4c(c3C)C(=O)C(C(=O)OC)c4c3nc(cc4[nH]c(cc(n2)[C@@H]1C)c(C(C)=O)c4C)[C@@H](C)[C@@H]3CCC(=O)NC(Cc1ccc(N(CCCl)CCCl)cc1)C(=O)O (some centres unmarked) [Compound 41]
IC50 (KB cells; [3]): 68 nM
